This experiment deals with CHK-1 kinase (Homo sapiens (Human), UniProt O14757). In words: CHK-1 Kinase Assay (Z-LYTE based TR-FRET). The class given is biochemical. The note with it: for inhibition at 0.1 µM: 0.1 μM compound, read-out: % Inhibition of CHK-1 enzyme activity @ 0.1 μM; for inhibition at 1 µM: 1 μM compound, read-out: % Inhibition of CHK-1 enzyme activity @ 1 μM; for inhibition at 5 µM: 5 μM compound, read-out: % Inhibition of CHK-1 enzyme activity @ 5 μM. On the procedure: IC50 values of compounds for inhibition of CHK-1 kinase or percent inhibition at defined concentrations were determined by Z-LYTE™ based TR-FRET assay. Kinase reactions were performed in a 10 μL volume in low-volume 384-well plates. The concentration of substrate (Ser Thr 19) was maintained at 2 μM in the assay, and the kinase reaction buffer consisted of 50 mM HEPES pH 7.5, 0.01% BRIJ-35, 10 mM MgCl2, 1 mM EGTA, 2 mM DTT. Serially diluted compounds (3-fold) in DMSO (0.5% in final reaction) were incubated with cocktail of CHK-1 kinase (5 ng/ml; Cat #P3040, ThermoFisher), substrate Ser Thr 19, (2 μM; Cat #PV4529, ThermoFisher), ATP (53 μM; Cat #PV3227, ThermoFisher) and buffer. Kinase reactions were allowed to proceed for 1 hour at room temperature after which 5 μL of a 1:256 dilution of Development Reagent A was added. The plate was allowed to incubate at room temperature for 60 minutes before being read on a BMG Pherastar plate reader using the Z-LYTE™ filter block for Z-LYTE™ TR-FRET. The resulting TR-FRET emission ratio was used to calculate percent inhibition by normalizing with the control using the following formula: — [% Inhibition=1−{(% Phosphorylationsample/% Phosphorylationcontrol (0% Inhibition)}·100] For calculation of IC50, the percent inhibition obtained was plotted against the concentration of inhibitor, and the data was fit to a sigmoidal dose-response curve with a variable slope. The IC50 was calculated from the curve.

In US12428395B2, “Heterocyclic compounds as kinase inhibitor and uses thereof” (SPEROGENIX THERAPEUTICS LIMITED, priority 2019, dated 2025) one finds inhibition and IC50 data, which are given here for 23 compounds.

A value given as a limit tells only on which side of the number the result lay.

CHK-1 kinase, sequence (O14757 whole entry): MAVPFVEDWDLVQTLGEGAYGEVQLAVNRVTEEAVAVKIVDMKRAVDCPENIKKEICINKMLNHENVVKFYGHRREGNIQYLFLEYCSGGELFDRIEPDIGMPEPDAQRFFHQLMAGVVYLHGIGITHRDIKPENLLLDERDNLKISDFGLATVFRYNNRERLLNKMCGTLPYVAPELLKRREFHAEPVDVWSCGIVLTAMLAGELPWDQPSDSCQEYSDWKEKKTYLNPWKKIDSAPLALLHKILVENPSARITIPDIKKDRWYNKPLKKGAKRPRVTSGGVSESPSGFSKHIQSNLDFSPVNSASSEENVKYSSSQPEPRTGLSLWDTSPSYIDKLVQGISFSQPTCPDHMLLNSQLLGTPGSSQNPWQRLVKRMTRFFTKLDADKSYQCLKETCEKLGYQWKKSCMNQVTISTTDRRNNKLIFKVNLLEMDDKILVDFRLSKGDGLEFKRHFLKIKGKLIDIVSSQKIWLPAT

Turning to `N#Cc1cnc(Nc2cc(NCC3CCNCC3)c(C3CC3)nn2)cn1` [1.18, 5-(6-cyclopropyl-5-(piperidin-4-ylmethylamino)pyridazin-3-ylamino)pyrazine-2-carbonitrile], the inhibition (usually the change of the read-out against control, counted positive when it falls) at 0.1 µM came out at 6%; the inhibition at 1 µM is 24%; the inhibition at 5 µM turned out to be 59%.
As for `N#Cc1cnc(Nc2cc(NCC3CCNCC3)c(-c3cccc4[nH]ccc34)nn2)cn1` [1.24, 5-(6-(1H-indol-4-yl)-5-(piperidin-4-ylmethylamino)pyridazin-3-ylamino)pyrazine-2-carbonitrile], the inhibition at 0.1 µM was 2%, the inhibition at 1 µM turned out to be 2% and the inhibition at 5 µM was determined as 34%.
Consider `CC(C)Oc1nnc(Nc2cnc(C#N)cn2)cc1NCC1CCNCC1` [1.31, 5-(6-isopropoxy-5-(piperidin-4-ylmethylamino)pyridazin-3-ylamino)pyrazine-2-carbonitrile], for which the inhibition at 0.1 µM came to 0%, the inhibition at 1 µM is 11% and the inhibition at 5 µM was 25%.
On to `N#Cc1cnc(Nc2cc(NCC3CCNCC3)c(C(F)(F)F)nn2)cn1` [1.8, 4-((6-(5-cyanopyrazin-2-ylamino)-3-(trifluoromethyl)pyridazin-4-ylamino)methyl)piperidinium 2,2,2-trifluoroacetate], for which the IC50 – broadly, the concentration that gives 50% inhibition – stood at 5.81 µM.
As for `CN1CCC(CNc2cnnc(Nc3cnc(C#N)cn3)c2)CC1` [1.10, 5-(5-((1-methylpiperidin-4-yl)methylamino)pyridazin-3-ylamino)pyrazine-2-carbonitrile], the inhibition at 0.1 µM was found to be 8%, the inhibition at 1 µM was 3% and the inhibition at 5 µM was found to be 15%.
Turning to `N#Cc1cnc(Nc2cc(NCC3CCNCC3)c(-c3ccc(F)cc3)nn2)cn1` [1.21, 5-(6-(4-fluorophenyl)-5-(piperidin-4-ylmethylamino)pyridazin-3-ylamino)pyrazine-2-carbonitrile], the inhibition at 0.1 µM was 3%, the inhibition at 1 µM turned out to be 5% and the inhibition at 5 µM was determined as 33%.
For the compound `COc1cccc(-c2nnc(Nc3cnc(C#N)cn3)cc2NCC2CCNCC2)c1` [1.26, 5-(6-(3-methoxyphenyl)-5-(piperidin-4-ylmethylamino)pyridazin-3-ylamino)pyrazine-2-carbonitrile], the inhibition at 0.1 µM turned out to be 0%, the inhibition at 1 µM came to 9% and the inhibition at 5 µM amounted to 26%.
For `CNC(=O)c1nnc(Nc2cnc(C#N)cn2)cc1NCC1CCOCC1` [1.30, 6-(5-cyanopyrazin-2-ylamino)-N-methyl-4-((tetrahydro-2H-pyran-4-yl)methylamino)pyridazine-3-carboxamide] the same measures were 28%, 78% and 97%.
For `N#Cc1cnc(Nc2cc(NCC3CCNCC3)c(-c3ccc(CO)cc3)nn2)cn1` [1.27, 5-(6-(4-(hydroxymethyl)phenyl)-5-(piperidin-4-ylmethylamino)pyridazin-3-ylamino)pyrazine-2-carbonitrile], the inhibition at 0.1 µM amounted to 0%, the inhibition at 1 µM was found to be 8% and the inhibition at 5 µM is 34%.
The like results for `Cc1nnc(Nc2cnc(C#N)cn2)cc1NCC1CNCCO1` (centres unmarked) [1.14, 5-(6-methyl-5-(morpholin-2-ylmethylamino)pyridazin-3-ylamino)pyrazine-2-carbonitrile] were, in that order, 2%, 15% and 45%.
Turning to `N#Cc1cnc(Nc2cc(OCC3CNCCO3)cnn2)cn1` (centres unmarked) [1.9, 5-(5-(morpholin-2-ylmethoxy)pyridazin-3-ylamino)pyrazine-2-carbonitrile], the IC50 was > 10 µM.
As for `N#Cc1cnc(Nc2cc(NCC3CCNCC3)c(-c3cccc(N4CCCCC4)c3)nn2)cn1` [1.25, 5-(6-(3-(piperidin-1-yl)phenyl)-5-(piperidin-4-ylmethylamino)pyridazin-3-ylamino)pyrazine-2-carbonitrile], the inhibition at 0.1 µM was found to be 8%, the inhibition at 1 µM turned out to be 10% and the inhibition at 5 µM amounted to 42%.
As for `Cc1nnc(Nc2cnc(C#N)cn2)cc1NCC1CCNCC1` [1.15, 5-(6-methyl-5-(piperidin-4-ylmethylamino)pyridazin-3-ylamino)pyrazine-2-carbonitrile], the inhibition at 0.1 µM was 7%, the inhibition at 1 µM was found to be 8% and the inhibition at 5 µM turned out to be 23%.
For the compound `Cn1cc(Nc2cc(NCC3CNCCO3)c(-c3ccccc3)nn2)cn1` (centres unmarked) [1.4, N3-(1-methyl-1H-pyrazol-4-yl)-N5-(morpholin-2-ylmethyl)-6-phenylpyridazine-3,5-diamine], the inhibition at 1 µM came out at 3% and the inhibition at 5 µM amounted to 5%.
With `N#Cc1cnc(Nc2cc(NCC3CNCCO3)c(C3CC3)nn2)cn1` (centres unmarked) [1.17, 5-(6-cyclopropyl-5-(morpholin-2-ylmethylamino)pyridazin-3-ylamino)pyrazine-2-carbonitrile], the inhibition at 0.1 µM was found to be 3%, the inhibition at 1 µM is 12% and the inhibition at 5 µM was determined as 41%.
For `CC(C)(C)OC(=O)N1CCOC(CNc2cc(Nc3cnc(C#N)cn3)nnc2C(F)(F)F)C1` (centres unmarked) [1.5, tert-butyl 2-((6-(5-cyanopyrazin-2-ylamino)-3-(trifluoromethyl)pyridazin-4-ylamino)methyl)morpholine-4-carboxylate], the IC50 was > 10 µM.
Turning to `COc1ccc(-c2nnc(Nc3cnc(C#N)cn3)cc2NCC2CCNCC2)cc1` [1.23, 5-(6-(4-methoxyphenyl)-5-(piperidin-4-ylmethylamino)pyridazin-3-ylamino)pyrazine-2-carbonitrile], the inhibition at 0.1 µM was determined as 7%, the inhibition at 1 µM turned out to be 18% and the inhibition at 5 µM turned out to be 41%.
As to `N#Cc1cnc(Nc2cc(NCC3CCOCC3)c(C(N)=O)nn2)cn1` [1.29, 6-(5-cyanopyrazin-2-ylamino)-4-((tetrahydro-2H-pyran-4-yl)methylamino)pyridazine-3-carboxamide], the inhibition at 0.1 µM was found to be 19%, the inhibition at 1 µM was found to be 60% and the inhibition at 5 µM is 93%.
For `Cn1ccc(-c2nnc(Nc3cnc(C#N)cn3)cc2NCC2CCNCC2)n1` [1.28, 5-(6-(1-methyl-1H-pyrazol-3-yl)-5-(piperidin-4-ylmethylamino)pyridazin-3-ylamino)pyrazine-2-carbonitrile], the inhibition at 0.1 µM was found to be 13%, the inhibition at 1 µM amounted to 48% and the inhibition at 5 µM stood at 86%.
With `N#Cc1cnc(Nc2cc(NCC3CCNCC3)c(OCC(F)(F)F)nn2)cn1` [1.33, 5-(5-(piperidin-4-ylmethylamino)-6-(2,2,2-trifluoroethoxy)pyridazin-3-ylamino)pyrazine-2-carbonitrile], the inhibition at 0.1 µM came out at 10%, the inhibition at 1 µM was 35% and the inhibition at 5 µM was found to be 75%.
As for `Cn1ccc(-c2nnc(Nc3cnc(C#N)cn3)cc2OCC2CNCCO2)n1` (centres unmarked) [1.13, 5-(6-(1-methyl-1H-pyrazol-3-yl)-5-(morpholin-2-ylmethoxy)pyridazin-3-ylamino)pyrazine-2-carbonitrile], the inhibition at 0.1 µM was 9%, the inhibition at 1 µM worked out at 9% and the inhibition at 5 µM turned out to be 11%.
Consider `N#Cc1cnc(Nc2cc(NCC3CCNCC3)c(-c3ccc(Oc4ccccc4)cc3)nn2)cn1` [1.22, 5-(6-(4-phenoxyphenyl)-5-(piperidin-4-ylmethylamino)pyridazin-3-ylamino)pyrazine-2-carbonitrile], for which the inhibition at 0.1 µM was found to be 8%, the inhibition at 1 µM is 27% and the inhibition at 5 µM came out at 65%.
As for `CN(C)C(=O)c1nnc(Nc2cnc(C#N)cn2)cc1NCC1CCNCC1` [1.32, 6-(5-cyanopyrazin-2-ylamino)-N,N-dimethyl-4-(piperidin-4-ylmethylamino)pyridazine-3-carboxamide], the inhibition at 0.1 µM amounted to 3%, the inhibition at 1 µM was 3% and the inhibition at 5 µM was determined as 15%.
